{
  "source": "paper PMC4424274",
  "about": "“Evaluation of [^11C]CB184 for imaging and quantification of TSPO overexpression in a rat model of herpes encephalitis” (European Journal of Nuclear Medicine and Molecular Imaging, 2015)",
  "key": {"[1]": {"parameters": "method as in PMID 19050880", "details": "cited from earlier work"}, "[2]": {"details": "lipophilicity; cited from earlier work"}, "TSPO [3]": {"molecular_target": "T1, TSPO (Rattus norvegicus, UniProt P16257)", "T1 construct": "from tissue; host or cells: Brain regions and peripheral organs of male Wistar rats, measured in vivo by PET and ex vivo by gamma counting", "experiment": "Kinetic modelling of PET data (2TCMR, Logan): BPND and VT", "format": "in vivo", "protocol": "(§1) PET scans with arterial blood sampling were performed in a different set of rats to generate input for pharmacokinetic modelling. For the arterial blood sampling a cannula was inserted into the femoral artery after induction of anaesthesia. The femoral vein was additionally cannulated for PET tracer injection. After cannulation, the rats were positioned in the camera and a transmission scan was acquired using a ^57Co point source. […] A 0.1 ml blood sample of was taken at 0, 5, 10, 15, 20, 30, 45, 60, 75, 90, 120, 180, 300, 450, 600, 900, 1,800 and 3,600 s after injection. A larger blood sample of 0.5 ml was taken at three time points (5, 15, 30 and/or 60 min) for metabolite analysis. After collection of each blood sample, heparinized saline was injected to prevent large changes in blood pressure. A 25 μl aliquot of whole blood was extracted from each sample for radioactivity measurement. The remainder of each sample was centrifuged at 13,000 rpm (15,996 g) for 8 min, and 25 μl plasma was taken for radioactivity measurement. The radioactivity in blood and plasma was measured with a gamma counter.\nThe TACs of those rats in which blood sampling was performed, together with their corresponding whole-blood and metabolite-corrected plasma curves, were used for pharmacokinetic modelling using PMOD v3.3 (PMOD Technologies, Zürich, Switzerland). […] The reversible two-tissue compartment model (2TCMR) with K 1/k 2 fixed to the whole cortex value and a fixed blood volume of 3 % were used to calculate the V T and nondisplaceable binding potential (BPND, calculated as k 3/k 4 [29])."}, "[4]": {"experiment": "Plasma clearance and plasma metabolite analysis", "format": "in vivo, rat", "details": "metabolite-corrected plasma, intravenous injection, rats", "protocol": "as §1\nRadioactive metabolites in plasma were measured using the extra blood samples taken at three time points during each scan (5, 15, 30 and/or 60 min). After centrifugation and collection of the plasma sample for radioactive measurement, as described above, the remaining plasma was diluted with acetonitrile (1.5 times the amount of plasma) and vortex-mixed. The plasma suspension was centrifuged at 5,300 rpm (3,030 g) for 3 min, and divided into supernatant and pellet. […] Fractions of 30 s were collected and measured in the gamma counter.\nThe percentage of metabolites in plasma was calculated by fitting an exponential function to the values obtained from the HPLC analysis. The plasma values obtained from the blood samples during the PET scan were then corrected for the presence of these metabolites, and used together with the whole-blood curve for further analysis. Metabolite corrected plasma TACs were fitted for each individual rat using iterative nonlinear least-squares fitting to the biexponential equation: SUVt = Ae^−αt + Be^−βt, where SUVt is the plasma SUV at time t, α and β are the apparent distribution and elimination rate constants (s^−1), respectively, and A and B are the corresponding zero-time intercepts. The weighting factors were the reciprocals of the plasma SUV squared. Distribution and elimination half-lives (seconds) were calculated as the natural logarithm of 2 divided by α and β, respectively."}, "TSPO [5]": {"molecular_target": "T1, TSPO", "experiment": "Ex vivo biodistribution of [^11C]CB184 in control and HSE rats", "details": "5 mg/kg unlabelled PK11195 5 min before tracer injection; control and HSE rats", "protocol": "PET scans were performed using a microPET Focus 220 camera (Siemens Medical Solutions Inc., Malvern, PA) on either day 6 or day 7 after inoculation with HSV-1 [18], depending on the severity of clinical symptoms. The rats were anaesthetized with 5 % isoflurane mixed with medical air at a flow rate of […]. After induction, anaesthesia was maintained with 1.5 – 2 % of isoflurane. The anaesthetized rats were positioned in the camera in a supine position with the head in the field of view. The PET tracer [^11C]CB184 was manually injected via the penile vein, and at the same time a dynamic 60-min scan was started. […] For 30 min the animals were kept under anaesthesia on the operation table after injection of the PET tracer into the penile vein, and were then placed in the scanner for a 30-min dynamic scan. A transmission scan was obtained in all rats using a ^57Co point source for attenuation and scatter correction. In the pretreated group, 5 mg/kg unlabelled PK11195 (Sigma-Aldrich, St. Louis, MO) in dimethyl sulphoxide (DMSO) at a concentration of 10 mg/ml was administered via a tail vein 5 min before injection of the PET tracer.\nThe brain and peripheral organs were excised and dissected, and blood was centrifuged to collect a plasma sample. Tissues were weighed and radioactivity was measured in a gamma counter (LKB Wallac, Turku, Finland). Tracer uptake in each region was corrected for the injected tracer dose and body weight and expressed as standardized uptake value (SUV), which was defined as: radioactivity (MBq/cm^3)/[injected dose (MBq)/body weight (g)]."}, "TSPO [6]": {"molecular_target": "T1, TSPO", "details": "HSE rat model; cited from earlier work"}, "[7]": {"details": "control rats (PBS group), k3/k4"}},
  "note": "Several values for one entry are separate records, joined by “and”; a condition that tells them apart may be missing. Equal entries are not always repeated. Where two headings read alike, the source gives them in different places.",
  "data": [
    {"smiles": "CC[C@@H](C)N([11CH3])C(=O)c1cc2ccccc2c(-c2ccccc2Cl)n1", "note": "[(R)-[^11C]PK11195, reference compound]", "values": [
      {"measurement": "Percentage of unchanged tracer in rat brain homogenate", "setting": "[1]; 20 min after injection", "result": "93 ± 4", "unit": "%"},
      {"measurement": "Percentage of unchanged tracer in rat brain homogenate", "setting": "[1]; 40 min after injection", "result": "90 ± 7", "unit": "%"},
      {"measurement": "logP", "setting": "[2]", "result": 2.54},
      {"measurement": "Binding potential (BPND), Amygdala", "setting": "TSPO [3]; HSE group, k3/k4", "result": "1.92 ± 0.73"},
      {"measurement": "Binding potential (BPND), Cerebellum", "setting": "TSPO [3]; HSE group, k3/k4", "result": "1.89 ± 0.39"},
      {"measurement": "Binding potential (BPND), Frontal cortex", "setting": "TSPO [3]; HSE group, k3/k4", "result": "1.54 ± 0.54"},
      {"measurement": "Binding potential (BPND), Hippocampus", "setting": "TSPO [3]; HSE group, k3/k4", "result": "1.39 ± 0.58"},
      {"measurement": "Binding potential (BPND), Hypothalamus", "setting": "TSPO [3]; HSE group, k3/k4", "result": "2.28 ± 0.84"},
      {"measurement": "Binding potential (BPND), Midbrain", "setting": "TSPO [3]; HSE group, k3/k4", "result": "1.34 ± 0.42"},
      {"measurement": "Binding potential (BPND), Olfactory bulb", "setting": "TSPO [3]; HSE group, k3/k4", "result": "4.03 ± 1.20"},
      {"measurement": "Binding potential (BPND), Pons", "setting": "TSPO [3]; HSE group, k3/k4", "result": "2.44 ± 0.41"},
      {"measurement": "Binding potential (BPND), Rest cortices", "setting": "TSPO [3]; HSE group, k3/k4", "result": "1.62 ± 0.60"},
      {"measurement": "Binding potential (BPND), Septum", "setting": "TSPO [3]; HSE group, k3/k4", "result": "1.34 ± 0.57"},
      {"measurement": "Binding potential (BPND), Striatum", "setting": "TSPO [3]; HSE group, k3/k4", "result": "1.03 ± 0.43"},
      {"measurement": "Binding potential (BPND), Thalamus", "setting": "TSPO [3]; HSE group, k3/k4", "result": "1.03 ± 0.51"},
      {"measurement": "Binding potential (BPND), Whole brain", "setting": "TSPO [3]; HSE group, k3/k4", "result": "1.72 ± 0.49"},
      {"measurement": "Binding potential (BPND), Amygdala", "setting": "TSPO [3]; [7]", "result": "1.65 ± 0.62"},
      {"measurement": "Binding potential (BPND), Cerebellum", "setting": "TSPO [3]; [7]", "result": "1.51 ± 0.60"},
      {"measurement": "Binding potential (BPND), Frontal cortex", "setting": "TSPO [3]; [7]", "result": "1.35 ± 0.51"},
      {"measurement": "Binding potential (BPND), Hippocampus", "setting": "TSPO [3]; [7]", "result": "0.98 ± 0.44"},
      {"measurement": "Binding potential (BPND), Hypothalamus", "setting": "TSPO [3]; [7]", "result": "1.92 ± 0.82"},
      {"measurement": "Binding potential (BPND), Medulla", "setting": "TSPO [3]; [7]", "result": "1.7 ± 0.6 and 1.65 ± 0.60"},
      {"measurement": "Binding potential (BPND), Midbrain", "setting": "TSPO [3]; [7]", "result": "0.96 ± 0.49"},
      {"measurement": "Binding potential (BPND), Olfactory bulb", "setting": "TSPO [3]; [7]", "result": "3.76 ± 1.16"},
      {"measurement": "Binding potential (BPND), Pons", "setting": "TSPO [3]; [7]", "result": "1.74 ± 0.69"},
      {"measurement": "Binding potential (BPND), Rest cortices", "setting": "TSPO [3]; [7]", "result": "1.33 ± 0.46"},
      {"measurement": "Binding potential (BPND), Septum", "setting": "TSPO [3]; [7]", "result": "1.20 ± 0.38"},
      {"measurement": "Binding potential (BPND), Striatum", "setting": "TSPO [3]; [7]", "result": "0.88 ± 0.33"},
      {"measurement": "Binding potential (BPND), Thalamus", "setting": "TSPO [3]; [7]", "result": "0.75 ± 0.35"},
      {"measurement": "Binding potential (BPND), Whole brain", "setting": "TSPO [3]; [7]", "result": "1.38 ± 0.49"},
      {"measurement": "Increase of BPND in the medulla, HSE rats vs. control rats", "setting": "TSPO [3]; medulla", "result": 55, "unit": "%"},
      {"measurement": "Distribution half-life in plasma", "setting": "[4]", "result": "0.367 ± 0.12", "unit": "min"},
      {"measurement": "Elimination half-life in plasma", "setting": "[4]", "result": "65 ± 46", "unit": "min"}
    ]},
    {"smiles": "CCC(C)N(C)C(=O)c1cc2ccccc2c(-c2ccccc2Cl)n1", "note": "(centres unmarked) [PK11195, reference compound]", "values": [
      {"measurement": "Effect of pretreatment on [^11C]CB184 binding to TSPO", "setting": "TSPO [5]", "result": "blocked"}
    ]},
    {"smiles": "COc1ccc(O[11CH3])c(CN(C(C)=O)c2cc(F)ccc2Oc2ccccc2)c1", "note": "[[^11C]DAA1106]", "values": [
      {"measurement": "Uptake in vivo in HSE rats vs. control rats", "setting": "TSPO [6]", "result": "did not show significantly higher uptake"}
    ]}
  ]
}
